The record followed here is patent US20230075856A1, “CYCLIC SULFAMIDE COMPOUNDS FOR TREATMENT OF HBV” (Assembly Biosciences, Inc., priority 2018, published 2023).

The structures appear in SMILES notation.

For one experiment, the system named is HBV viral load production from HepAD38 cells. Description: Viral production from HepAD38 cells: viral load in supernatant by qPCR of the HBV core sequence. The experiment is classed as cell-based. Conditions: 5 days incubation, qPCR of supernatant HBV DNA vs DMSO control, read-out: viral load lowering EC50 (Activity). An outline of the steps:
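Viral load was measured by qPCR of the HBV core region in supernatant, quantified against DNA standards and compared with DMSO wells. Cells (50,000/well, tetracycline withdrawn, 2% FBS) received compound from 10 μM final for 5 days; EC50 from four-parameter nonlinear regression.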
(In general: Real-time PCR tracks product formation cycle by cycle.)
As a reminder, the EC50 is the midpoint of the concentration-response curve. As for `CN1C(C(=O)Nc2ccc(F)c(Cl)c2)CC(C(=O)NCc2cnc(C(F)(F)F)s2)NS1(=O)=O` (single isomer, unassigned) [Compound 498-ISOMER-B, N3-(3-chloro-4-fluoro-phenyl)-2-methyl-1,1-dioxo-N5-[[2-(trifluoromethyl)thiazol-5-yl]methyl]-1,2,6-thiadiazinane-3,5-dicarboxamide], the EC50 fell in the range of 50 to 100 nM.

As to `CN1C(C(=O)Nc2ccc(F)c(Cl)c2)CC(C(=O)NC2CCN(c3ccnc(Br)c3)CC2)NS1(=O)=O` (single isomer, unassigned) [1036-ISOMER-B, N5-[1-(2-bromo-4-pyridyl)-4-piperidyl]-N3-(3-chloro-4-fluoro-phenyl)-2-methyl-1,1-dioxo-1,2,6-thiadiazinane-3,5-dicarboxamide], the EC50 lay within 100 to 10000 nM.

`CN1C(C(=O)Nc2ccc(F)c(Cl)c2)CC(C(=O)NCC2CCCCC2)NS1(=O)=O` (single isomer, unassigned) [1160-ISOMER-B, N3-(3-chloro-4-fluoro-phenyl)-N5-(cyclohexylmethyl)-2-methyl-1,1-dioxo-1,2,6-thiadiazinane-3,5-dicarboxamide]: the concentration for a half-maximal effect (EC50) is 100 to 10000 nM.

Turning to `CN1C(C(=O)Nc2ccc(F)c(Cl)c2)CC(C(=O)NCc2cccc(Cl)c2)NS1(=O)=O` (single isomer, unassigned) [Compound 730-ISOMER-B, N3-(3-chloro-4-fluorophenyl)-N5-[(3-chlorophenyl)methyl]-2-methyl-1,1-dioxo-1,2,6-thiadiazinane-3,5-dicarboxamide], the concentration giving a half-maximal response (EC50) was in the range of 100 to 10000 nM.

Regarding `CN1C(C(=O)Nc2ccc(F)c(Cl)c2)CC(C(=O)NCc2nc(C(F)(F)F)cs2)NS1(=O)=O` (single isomer, unassigned) [1202-ISOMER-B, N3-(3-chloro-4-fluoro-phenyl)-2-methyl-1,1-dioxo-N5-[[4-(trifluoromethyl)thiazol-2-yl]methyl]-1,2,6-thiadiazinane-3,5-dicarboxamide], the EC50 is less than 50 nM.

The same experiment, now with this note: Hepatitis B virus, HePAD38, 120 h, 5 days incubation, qPCR of supernatant HBV DNA vs DMSO control, read-out: viral load lowering EC50 (Activity).
In the case of `CN1C(C(=O)Nc2ccc(F)c(Cl)c2)CC(C(=O)NCc2sc(-c3ccccc3F)nc2C(F)(F)F)NS1(=O)=O` (single isomer, unassigned) [1082-ISOMER-A, N3-(3-chloro-4-fluoro-phenyl)-N5-[[2-(2-fluorophenyl)-4-(trifluoromethyl)thiazol-5-yl]methyl]-2-methyl-1,1-dioxo-1,2,6-thiadiazinane-3,5-dicarboxamide], the 50% effective concentration (EC50) was less than 50 nM.

On to `CN1C(C(=O)Nc2ccc(F)c(Cl)c2)CC(C(=O)NCc2ccccc2)NS1(=O)=O` (single isomer, unassigned) [Compound 718-ISOMER-A, N5-benzyl-N3-(3-chloro-4-fluoro-phenyl)-2-methyl-1,1-dioxo-1,2,6-thiadiazinane-3,5-dicarboxamide], for which the half-maximal effective concentration (EC50) was less than 50 nM.

In the case of `CCc1nc(CNC(=O)C2CC(C(=O)Nc3ccc(F)c(Cl)c3)N(C)S(=O)(=O)N2)cs1` (centres unmarked) [Compound 742], the concentration for a half-maximal effect (EC50) lay within 50 to 100 nM.

As for `CN1C(C(=O)Nc2ccc(F)c(Cl)c2)CC(C(=O)NCc2cccc(C(F)(F)F)c2)NS1(=O)=O` (centres unmarked) [Compound 724], the EC50 was in the range of 50 to 100 nM.

Take `CC(=O)N1CCC(NC(=O)C2CC(C(=O)Nc3ccc(F)c(Cl)c3)N(C)S(=O)(=O)N2)CC1` (centres unmarked) [Compound 851]: the EC50 lay within 100 to 10000 nM.

`CN1C(C(=O)Nc2ccc(F)c(Cl)c2)CC(C(=O)N[C@@H](c2ccccc2)c2cnc(-c3ccccc3Cl)s2)NS1(=O)=O` (single isomer, unassigned) [1068-ISOMER-B]: the 50% effective concentration (EC50) lay within 50 to 100 nM.

Consider `CN1C(C(=O)Nc2ccc(F)c(Cl)c2)CC(C(=O)NCc2cnc(-c3ccccc3)s2)NS1(=O)=O` (single isomer, unassigned) [Compound 691-ISOMER-A, N3-(3-chloro-4-fluoro-phenyl)-2-methyl-1,1-dioxo-N5-[(2-phenylthiazol-5-yl)methyl]-1,2,6-thiadiazinane-3,5-dicarboxamide], for which the EC50 is 100 to 10000 nM.

On to `Cc1c(CNC(=O)C2CC(C(=O)Nc3ccc(F)c(Cl)c3)N(C)S(=O)(=O)N2)noc1-c1ccccc1` (single isomer, unassigned) [1150-ISOMER-A, N3-(3-chloro-4-fluoro-phenyl)-2-methyl-N5-[(4-methyl-5-phenyl-isoxazol-3-yl)methyl]-1,1-dioxo-1,2,6-thiadiazinane-3,5-dicarboxamide], for which the EC50 is less than 50 nM.

For `CN1C(C(=O)Nc2ccc(F)c(Cl)c2)CC(C(=O)NCc2nn(-c3ccccc3F)c3ccccc23)NS1(=O)=O` (single isomer, unassigned) [1086-ISOMER-A, N3-(3-chloro-4-fluoro-phenyl)-N5-[[1-(2-fluorophenyl)indazol-3-yl]methyl]-2-methyl-1,1-dioxo-1,2,6-thiadiazinane-3,5-dicarboxamide], the EC50 is less than 50 nM.

As to `CN1C(C(=O)Nc2ccc(F)c(Cl)c2)CC(C(=O)NC2CCN(c3ccnc(Br)c3)CC2)NS1(=O)=O` (single isomer, unassigned) [1036-ISOMER-A, N5-[1-(2-bromo-4-pyridyl)-4-piperidyl]-N3-(3-chloro-4-fluoro-phenyl)-2-methyl-1,1-dioxo-1,2,6-thiadiazinane-3,5-dicarboxamide], the half-maximal effective concentration (EC50) is less than 50 nM.

Consider `CN1C(C(=O)Nc2ccc(F)c(Cl)c2)CC(C(=O)NC2CCC(F)(F)CC2)NS1(=O)=O` (centres unmarked) [Compound 859], for which the EC50 lay in the range of 100 to 10000 nM.

With `Cc1ccccc1CNC(=O)C1CC(C(=O)Nc2ccc(F)c(Cl)c2)N(C)S(=O)(=O)N1` (centres unmarked) [Compound 817], the EC50 is less than 50 nM.

Consider `CN1C(C(=O)Nc2ccc(F)c(Cl)c2)CC(C(=O)NCc2ccccc2N2CCOCC2)NS1(=O)=O` (centres unmarked) [Compound 907], for which the EC50 lay in the range of 50 to 100 nM.

`CN1C(C(=O)Nc2ccc(F)c(Cl)c2)CC(C(=O)NCC2CCCCC2)NS1(=O)=O` (centres unmarked) [Compound 1160]: the EC50 was 100 to 10000 nM.

As to `CN1C(C(=O)Nc2ccc(F)c(Cl)c2)CC(C(=O)NCc2ccccc2-n2cccn2)NS1(=O)=O` (centres unmarked) [Compound 909], the EC50 was less than 50 nM.

As to `Cc1nc(-c2ccccc2F)sc1CN(C(=O)C1CC(C(N)=O)NS(=O)(=O)N1C)c1ccc(F)c(Cl)c1` (single isomer, unassigned) [1016-ISOMER-A, N3-(3-chloro-4-fluoro-phenyl)-N-[[2-(2-fluorophenyl)-4-methyl-thiazol-5-yl]methyl]-2-methyl-1,1-dioxo-1,2,6-thiadiazinane-3,5-dicarboxamide], the concentration for a half-maximal effect (EC50) is less than 50 nM.

Regarding `CCN1CCC(Oc2ccc(-c3ncc(CNC(=O)C4CC(C(=O)Nc5ccc(F)c(Cl)c5)N(C)S(=O)(=O)N4)s3)cc2)CC1` (centres unmarked) [Compound 921], the EC50 was in the range of 50 to 100 nM.

As to `CN1C(C(=O)Nc2ccc(F)c(Cl)c2)CC(C(=O)NCc2cnc(-c3ccc(C#CCCO)cc3)s2)NS1(=O)=O` (centres unmarked) [Compound 926], the 50% effective concentration (EC50) was less than 50 nM.

Take `CN1C(C(=O)Nc2ccc(F)c(Cl)c2)CC(C(=O)NCc2sc(-c3ccccc3Cl)nc2C(F)(F)F)NS1(=O)=O` (centres unmarked) [Compound 1064]: the EC50 was less than 50 nM.

Turning to `CN1C(C(=O)Nc2ccc(F)c(Cl)c2)CC(C(=O)NCc2nc3ccccc3s2)NS1(=O)=O` (single isomer, unassigned) [Compound 689-ISOMER-A, N5-(1,3-benzothiazol-2-ylmethyl)-N3-(3-chloro-4-fluoro-phenyl)-2-methyl-1,1-dioxo-1,2,6-thiadiazinane-3,5-dicarboxamide], the half-maximal effective concentration (EC50) fell in the range of 100 to 10000 nM.

For `C[C@@H](NC(=O)C1CC(C(=O)Nc2ccc(F)c(Cl)c2)N(C)S(=O)(=O)N1)c1ccccc1` (single isomer, unassigned) [Compound 719-ISOMER-A], the EC50 is less than 50 nM.
